Experimental data: patent US6060304A, “Method of producing conjugated fatty acids” (Wisconsin Alumni Research Foundation, priority 1998, dated 2000)

Tests used:
[1] = tested on: linoleate isomerase of L. reuteri PYR8; test: Substrates tested with cells of L. reuteri PYR8, product analysed by GC; assay type: biochemical, Lactobacillus reuteri PYR8 (ATCC 55739); conditions: for Major Products (putative) of the linoleate isomerase: 0.2 mg substrate reacted with 20 mg PYR8 cells, GC; for Activity of the organism / consumption relative to other substrates: effect of extra double bonds at position 6 and/or 15; for Activity as substrate of the Lactobacillus: unsaturated fatty acids lacking double bonds at both positions 9 and 12
Experimental: ^a Each substrate (0.2 mg) was reacted with the cells (20 mg) of L.
reuteri PYR8, and product was analyzed by GC, as described in methods.
Fatty acids were extracted with chloroform:methanol (2:1) and 4% KCl. Hexadecanoic acid (HDA) was added as an internal standard. […] Fatty acid peaks were separated with a fused silica capillary column, 60 m by […] I.D. with a 0.25 μm film thickness (Supelco Park, Bellefonte, Pa.).

[2] = tested on: linoleate isomerase of L. reuteri PYR8; conditions: for Rate of converting: 36-hour PYR8 cells
Experimental: Fatty acids were extracted with chloroform:methanol (2:1) and 4% KCl. Hexadecanoic acid (HDA) was added as an internal standard. The extraction mix was centrifuged at 2000 g for 5 minutes, then the chloroform fraction containing the fatty acids (bottom fraction) was removed and dried down by nitrogen gas. The fatty acids were suspended in 4% HCl in anhydrous methanol, and were methylated in a 60° C. water bath for 20 minutes. Finally, drops of double distilled water (DDW) were added to the methylation tube and hexane was used to re-extract the fatty acid. After washing twice with DDW and dehydrating by sodium sulfate, 1-2 μl of the hexane fraction was injected into a model 5890 series II gas chromatograph fitted with a model 3396A integrator (Hewlett-Packard Company, Avondale, Pa.) for fatty acid analysis. Fatty acid peaks were separated with a fused silica capillary column, 60 m by […] I.D. with a 0.25 μm film thickness (Supelco Park, Bellefonte, Pa.).
Thirty-six-hour cultures were diluted in 0.1M Tris-HCl (pH 8.55) buffer to 1:10, 1:15, 1:20 (w/v). Five ml of each suspension were reacted with 2.0 mg of linoleic acid for 1, 2, or 3 hours at 12° C. At 1:15, five ml were incubated with 1.0 mg, 1.5 mg, 2.0 mg and 3.0 mg of alpha-linolenic acid for 1 hour, or with 2.0 mg of gamma-linolenic acid for 1, 2, 3, 4, or 24 hours at 4° C. Fatty acids were extracted with chloroform:methanol and assayed by the GC method.

[3] = tested on: mammary cancer; conditions: rodents; cited from earlier work
[4] = tested on: epidermal carcinogenesis and forestomach neoplasia; conditions: mice; cited from earlier work
[5] = tested on: carcinogen-induced rat mammary tumors; conditions: cited from earlier work
[6] = chicks, mice and rats; cited from earlier work
[7] = rabbits fed an atherogenic diet; cited from earlier work
[8] = mouse, rat and chick models; cited from earlier work
[9] = tested on: atherosclerosis; conditions: rabbits and hamsters; cited from earlier work

Row | Compound | Major Products (putative) of the linoleate isomerase [1] | Rate of converting [2] | Activity as substrate of the Lactobacillus [1] | further results
1 | CC/C=C\C/C=C\C/C=C\CCCCCCCC(=O)O [Alpha-linolenic acid] | cis9, trans11, cis15 | 8.0 mg/hour/gram cells |  | Activity of the organism / consumption relative to other substrates [1]: promoted; Amount of substrate converted in one hour ([2]; dilution 1:15, five ml, 4° C.): 2.5 mg
2 | CCCCC/C=C\C/C=C\C/C=C\C/C=C\CCCC(=O)O [Arachidonic acid] | None |  | Inactive | 
3 | CCCCC/C=C\C/C=C\C/C=C\CCCCC(=O)O [Gamma-linolenic acid] | cis6, cis9, trans11 | less than 0.25 mg/hour/gram cells |  | Activity of the organism / consumption relative to other substrates [1]: reduced; Conversion to cis-6, cis-9, trans-11 isomer in 24 hours ([2]; dilution 1:15, 2.0 mg substrate, 4° C.): unable to convert
4 | CCCCC/C=C\C/C=C\CCCCCCCC(=O)O [Linoleic acid] | cis9, trans11 isomer | 3.2 mg/hour/gram cells |  | Effect on mammary cancer [3]: associated with enhancing mammary cancer
5 | CCCCCCCC/C=C\CCCCCCCC(=O)O [Oleic acid] | None |  | Inactive | 
6 | Conjugated linoleic acid [CLA] |  |  |  | Inhibition of epidermal carcinogenesis and forestomach neoplasia [4]: effective inhibitor; Inhibition of carcinogen-induced mammary tumors [5]: effective inhibitor; Prevention of adverse effects caused by immune stimulation [6]: can prevent adverse effects; Ratio of LDL-cholesterol to HDL-cholesterol [7]: can decrease; Body fat [8]: reduces body fat; Inhibition of atherosclerosis [9]: inhibits atherosclerosis
7 | Octadecanoic acid | None |  | Inactive | 
